Data reported in patent US6046186A, “Estrone sulfamate inhibitors of estrone sulfatase, and associated pharmaceutical compositions and methods of use” (SRI International, priority 1997, dated 2000).
Like-named read-outs stand apart in the source and are kept apart here.

Experiments:
Estrone Sulfatase = target: T1, Estrone Sulfatase (Homo sapiens, UniProt P08842); assay: Effects of Inhibitors on Estrone Sulfatase Activity in MCF-7 Cells; assay type: cell-based
T1 construct: endogenous in cells; host or cells: MCF-7 human breast cancer cells (American Type Culture Collection)
T1 sequence (P08842 22-583): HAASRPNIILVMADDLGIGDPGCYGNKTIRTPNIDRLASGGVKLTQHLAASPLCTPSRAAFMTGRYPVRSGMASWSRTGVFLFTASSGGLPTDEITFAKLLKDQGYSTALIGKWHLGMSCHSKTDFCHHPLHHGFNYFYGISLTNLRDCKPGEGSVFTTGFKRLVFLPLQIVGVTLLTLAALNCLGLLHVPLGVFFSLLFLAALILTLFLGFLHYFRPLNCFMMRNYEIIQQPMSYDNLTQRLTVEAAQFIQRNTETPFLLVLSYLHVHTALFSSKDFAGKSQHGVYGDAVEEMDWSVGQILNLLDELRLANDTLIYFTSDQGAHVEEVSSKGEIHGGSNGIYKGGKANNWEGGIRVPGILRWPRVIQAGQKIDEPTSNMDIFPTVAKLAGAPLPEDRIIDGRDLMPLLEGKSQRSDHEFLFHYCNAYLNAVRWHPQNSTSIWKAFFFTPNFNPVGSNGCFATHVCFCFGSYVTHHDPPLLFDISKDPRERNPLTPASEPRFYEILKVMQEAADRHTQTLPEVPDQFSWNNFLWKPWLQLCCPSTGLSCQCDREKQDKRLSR
From the text: A. Effects of Inhibitors on Estrone Sulfatase Activity in MCF-7 Cells
Reagents: MCF-7 human breast cancer cell line was supplied by the American Type Culture Collection, Rockville, MD. Eagle's minimum essential medium (MEM) and fetal calf serum (FCS) were purchased from Sigma Chemical Company, St. Louis, Mo. [4-^14 C]Estrone, [6,7-^3 H]estradiol and [6,7-^3 H](N)estrone sulfate were obtained from New England Nuclear Research Products, Boston, Mass.
Procedure: The method of Duncan et al., Cancer Res. 53:298-303 (1993) was employed. MCF-7 cells were seeded in 60 mm×15 mm culture dishes at 1×10^5 cells/dish and maintained in 4.0 ml of MEM containing 2 mM glutamine and 5% FCS. The cells were incubated at 37° C. in an atmosphere of 5% CO2 /95% air and 100% humidity, with the medium changed every third day. When the cells reached 80% confluency, the intact monolayers were washed once with Earl's balanced salt solution and incubated in 4.0 ml of serum and phenol re-free MEM containing either the substrate (^3 H-estrone sulfate, 7 pmol, 9×10^5 dpm) and inhibitor dissolved in ethanol, or ethanol alone. The fmal ethanol concentration was always below 1%. The incubation continued under the regular conditions for 24 h. At the end of 24 h, 2.0 ml of medium was transferred into separate tubes containing 7×10^3 dpm of ^14 C-estrone. The mixture was vortexed vigorously for 60 s with 5 ml of toluene. After phase separation, 2.0 ml of the organic phase was transferred into a counting vial for scintillation counting. The amount of estrone sulfate hydrolyzed was calculated on the basis of ^3 H counts obtained, with the added ^14 C-estrone counts used to correct for recovery through the extraction procedure.
The cells remaining in each culture dish were washed once with saline and then scraped with 1.0 ml of 0.5 N NaOH into 10×75 mm tubes. The cell pellets in each tube was incubated at 50° C. for 20 min to ensure that digestion was complete and all proteins had became soluble. An aliquot was then taken for protein determination by Lowry's method (Lowry et al., J. Biol. Chem. 193:265-275 (1951)).
The percentage of inhibition was determined by evaluating the quantity of estrone sulfate hydrolyzed with the inhibitor relative to that without the inhibitor.
As a general practice, all available inhibitors were first tested at 100 μM; the ones showing inhibitory effects at that concentration were tested again at various concentrations to obtain the IC50 values.

uterus = assay: Uterotrophic assay (estrogenic activity from uterine weights); assay type: in vivo, Sprague Dawley rats; design: scale not given here; conditions: female rats, test compound alone once daily for 7 days, s.c. or oral gavage; uterine weight vs vehicle control
From the text: B. Uterotrophic and antiuterotrophic assays
Sprague Dawley rates are obtained from Simmonsen Laboratories, Gilroy, Calif. Estradiol benzoate may be purchased from Sigma Chemical Co., St. Louis, Mo.
The procedure of Wakeling et al., Endocrinology 99:447453 (1983) is followed. Female Sprague Dawley rats weighing 40-50 grams are used for the experiment. In general, animals are quarantined for 3 days after arrival at the experimental site.
Rats are initially weighed and randomly divided into groups with 5 animals in each group. For the uterotrophic assay, animals are dosed once daily with various doses of test compounds in 0.1 or 1.0 ml of sterile saline via subcutaneous injection or oral gavage, respectively. For the antiuterotrophic assay, animals are dosed once daily with the same doses indicated above plus 0.5 μg/rat of estradiol benzoate alone.
The animals are treated for 7 days. On day 8, animals are weighed and then sacrificed. The uterus of each animal is removed immediately after death and weighed; fat materials are trimmed off prior to weighing.
A comparison of uterine weights from the groups receiving test compound alone with those of the vehicle control group gives the estrogenic activity. Antiestrogenic activity is obtained by comparing the uterine weights from the groups receiving test compound plus estradiol with those of the estradiol control group.

[1] = intact MCF-7 human breast cancer cells, 3H-estrone sulfate substrate, 24 h, 37° C., read-out: Estrone Sulfatase Inhibitory Activity IC50

With `CC(=O)Nc1c(OS(N)(=O)=O)ccc2c1CC[C@@H]1[C@@H]2CC[C@]2(C)C(=O)CC[C@@H]12` [Compound 96, 4-Acetoamideestra-1,3,5(10)-trien-17-one-3-O-sulfamate] the IC50 (Estrone Sulfatase; [1]) was 290 nM and the “Estrogenic Activity” value (uterus) was 0.
In the case of `CN(C)CCO[C@H]1CC[C@H]2[C@@H]3CCc4cc(OS(N)(=O)=O)ccc4[C@H]3CC[C@]12C` [Compound 44, 17β-(2'-N,N-Dimethylaminoethoxy)estra-1,3,5(10)-triene-3-O-sulfamate], the IC50 (Estrone Sulfatase; [1]) is reported as 24 nM and the “Estrogenic Activity” value (uterus) is reported as 0.
For `C[C@]12CC[C@@H]3c4ccc(OS(N)(=O)=O)cc4CC[C@H]3[C@@H]1CCC2=C(C#N)C#N` [Compound 36, 20-Cyano-19-norpregna-1,3,5(10),17(20)-tetraene-21-nitrile-3-O-sulfamate], the IC50 (Estrone Sulfatase; [1]) was 0.09 nM and the “Estrogenic Activity” value (uterus) was 0.44.
`CCC[C@H]1CC[C@H]2[C@@H]3CCc4cc(OS(N)(=O)=O)ccc4[C@H]3CC[C@]12C` [Compound 21, 17β-Propylestra-1,3,5(10)-triene-3-O-sulfamate] was tested, and the IC50 (Estrone Sulfatase; [1]) was 0.034 nM and the “Estrogenic Activity” value (uterus) was 0.
`C/C=C1/CC[C@H]2[C@@H]3CCc4cc(OS(N)(=O)=O)ccc4[C@H]3CC[C@]12C` [Compound 13, [17(20)Z]-19-Norpregna-1,3,5(10),17(20)-tetraene-3-O-sulfamate] was tested, and the IC50 (Estrone Sulfatase; [1]) was 0.08 nM and the “Estrogenic Activity” value (uterus) was 0.05.
`CC[C@H]1CC[C@H]2[C@@H]3CCc4cc(OS(N)(=O)=O)ccc4[C@H]3CC[C@]12C` [Compound 19, 19-Norpregna-1,3,5(10)-triene-3-O-sulfamate] was tested, and the IC50 (Estrone Sulfatase; [1]) was 0.02 nM and the “Estrogenic Activity” value (uterus) was 0.54.
For `CN(C)CCO[C@@H]1CC[C@H]2[C@@H]3CCc4cc(OS(N)(=O)=O)ccc4[C@H]3CC[C@]12C` [Compound 55, 17α-(2'-N,N-Dimethylaminoethoxy)estra-1,3,5(10)-triene-3-O-sulfamate], the IC50 (Estrone Sulfatase; [1]) was 26 nM and the “Estrogenic Activity” value (uterus) was 0.
`CC(=O)[C@H]1CC[C@H]2[C@@H]3CCc4cc(OS(N)(=O)=O)ccc4[C@H]3CC[C@]12C` [Compound 10, 19-Norpregna-1,3,5(10)trien-20-one-3-O-sulfamate] was tested, and the IC50 (Estrone Sulfatase; [1]) was 2 nM and the “Estrogenic Activity” value (uterus) was 0.
In the case of `CCCC[C@H]1CC[C@H]2[C@@H]3CCc4cc(OS(N)(=O)=O)ccc4[C@H]3CC[C@]12C` [Compound 23, 19,21-Dinorchola-1,3,5(10)-triene-3-O-sulfamate], the IC50 (Estrone Sulfatase; [1]) is reported as 0.096 nM and the “Estrogenic Activity” value (uterus) is reported as 0.02.
In the case of `CC(=O)Nc1cc2c(cc1OS(N)(=O)=O)CC[C@@H]1[C@@H]2CC[C@]2(C)C(=O)CC[C@@H]12` [Compound 93, 2-Acetoamideestra-1,3,5(10)-trien-17-one-3-O-sulfamate], the IC50 (Estrone Sulfatase; [1]) is reported as 410 nM and the “Estrogenic Activity” value (uterus) is reported as 0.02.
With `CC(C)(C)[Si](C)(C)O[C@@H]1CC[C@H]2[C@@H]3CCc4cc(OS(N)(=O)=O)ccc4[C@H]3CC[C@]12C` [Compound 52, 17α-tert-Butyldimethylsilyloxyestra-1,3,5(10)-triene-3-O-sulfamate] the IC50 (Estrone Sulfatase) was 0.31 nM and the “Estrogenic Activity” value (uterus) was 0.
In the case of `COCc1cc2c(cc1OS(N)(=O)=O)CC[C@@H]1[C@@H]2CC[C@]2(C)C(=O)CC[C@@H]12` [Compound 75, 2-Methoxymethylestra-1,3,5(10)-trien-17-one-3-O-sulfamate], the IC50 (Estrone Sulfatase; [1]) is reported as 2 nM and the “Estrogenic Activity” value (uterus) is reported as 0.
For `CCOC(=O)/C=C1/CC[C@H]2[C@@H]3CCc4cc(OS(N)(=O)=O)ccc4[C@H]3CC[C@]12C` [Compound 32, Ethyl 3-Sulfamoyloxy-[17(20)Z]-19-norpregna-1,3,5(10),17(20)-tetraen-21-oate], the IC50 (Estrone Sulfatase; [1]) was 2.7 nM and the “Estrogenic Activity” value (uterus) was 0.
`C[C@]12CC[C@@H]3c4ccc(OS(N)(=O)=O)c([N+](=O)[O-])c4CC[C@H]3[C@@H]1CCC2=O` [Compound 77, 4-Nitroestra-1,3,5(10)-trien-17-one-3-O-sulfamate] was tested, and the IC50 (Estrone Sulfatase; [1]) was under 10 nM and the “Estrogenic Activity” value (uterus) was 0.
In the case of `CC[C@H]1CC[C@H]2[C@@H]3CCc4cc(OS(N)(=O)=O)c(OC)cc4[C@H]3CC[C@]12C` [Compound 71, 2-Methoxy-19-norpregna-1,3,5(10)-triene-3-O-sulfamate], the IC50 (Estrone Sulfatase; [1]) is reported as 1.5 nM and the “Estrogenic Activity” value (uterus) is reported as 0.
For `C[C@]12CC[C@@H]3c4cc([N+](=O)[O-])c(OS(N)(=O)=O)cc4CC[C@H]3[C@@H]1CCC2=O` [Compound 78, 2-Nitroestra-1,3,5(10)-trien-17-one-3-O-sulfamate], the IC50 (Estrone Sulfatase) was 7 nM and the “Estrogenic Activity” value (uterus) was 0.
In the case of `CN(C)CCOC/C=C1\CC[C@H]2[C@@H]3CCc4cc(OS(N)(=O)=O)ccc4[C@H]3CC[C@]12C` [Compound 39, 21-(2'-N,N-Dimethylaminoethoxy)-[17(20)E]-19-norpregna-1,3,5(10),17(20)-tetraene-3-O-sulfamate], the IC50 (Estrone Sulfatase; [1]) is reported as 34 nM and the “Estrogenic Activity” value (uterus) is reported as 0.
